Test results as given in patent publication US20260000596A1, “SEMI-SYNTHETIC RHAMNOLIPIDS” (The Procter & Gamble Company, priority 2024, published 2026).
≈ marks a conversion by molar mass, not a printed value. Where two headings read alike, the source gives them in different places.

Columns and labels:
Assay type in all cases: cell-based
[1] = system: Escherichia coli ATCC 8739; assay: Minimal Kill Concentration Assay (MKCA), E. coli; settings: 20-minute contact time; for MBC: Escherichia coli, ATCC8739, 20 min, read-out: E. coli MKC (ppm)
Description: (§1) The MKC assay is a 96 well plate method to determine the minimum concentration of a test material or composition needed to kill Gram-negative and Gram-positive bacteria (Escherichia coli ATCC 8739 and Staphylococcus aureus ATCC 6538, respectively). The bacterial suspensions are prepared from 10× freezer stocks with 15% glycerol. The freezer stocks are centrifuged at 13,000×g (Eppendorf Centrifuge […] No. 541705483) for 1 minute. The supernatant is removed, and the cell pellet is resuspended in 1 mL saline (Sodium chloride solution 0.9%, Cytiva REF: Z1376), and then transferred to 9 mL saline. The target cfu/ml is 10^8, which is confirmed via serial diluting and plating on TSA plates (Tryptic Soy Agar-Sigma-Aldrich Cat #22091). Then 50 μL (25 μL if low on test materials) of bacteria is added to each well of a 96 well 0.5 mL V-Bottom plate (Greiner bio-one REF: 786201) to make a bacteria plate, one separate plate for each bacterium. The dilutions of the test compounds are prepared in a separate 96 well plate. The test compounds are tested at six dilutions in duplicates or with no replication diluted across the entire plate. The test compounds are prepared in Dimethyl Sulfoxide (Sigma Aldrich GR ACS Cat. No: MX1458-6) or sterile water at 2× the intended test concentration, and then serially diluted in the appropriate vehicle 1:2 across the plate using a multichannel. 50 μL (25 μL if low on test materials) from the test compound plate is added to each well in the bacteria plate all at once using an Integra VIAFLOW 96 channel pipette (Model: VIAFLO 96) and the Integra 300 μL Head (Part No. 6103). With addition of the 2× compounds bacteria plate, the compounds are diluted to a 1× test concentration. The addition of the test compounds to the bacteria wells starts the 20-minute contact time. The plates are mixed well using a Mix-Mate (Eppendorf SE). After 20 minutes, 1 μL from each well of the bacteria plate is transferred to premade Tryptic Soy Agar (TSA) plates (OmniTray Cell Culture Treated w/Lid Sterile, Cat. No: 165218) for spot plating using the Integra VIAFLOW 96 with the Integra 12.5 μL head (Part No. 6101). Then 4 μL from each well of the bacteria/compound plate is transferred to another 96 well plate containing 36 μL of neutralizer broth Modified Letheen Broth (BD Difco Letheen Broth, Modified REF 263010). The contact time is stopped at 20 minutes once the compound plate is neutralized. The plates are mixed well using a Mix-Mate and then 1 μL of the neutralizer+sample mix is transferred to a TSA OmniTray plate using the Integra VIAFLOW and Integra 12.5 μL head. The TSA spot plates are then incubated overnight for 20 hours at 37° C. in an Incubator. This process is done for both bacteria species. After overnight incubation, the plates are removed from the incubator and the results recorded by observing which dilutions had bacterial kill/growth. The last dilution that had kill for both replicates is recorded as the MKC. A positive control of Benzalkonium chloride (Sigma Aldrich Cat. No.: 12060-5G) and vehicle controls are always included in the test.

[2] = system: Staphylococcus aureus ATCC 6538; assay: Minimal Kill Concentration Assay (MKCA), S. aureus; settings: 20-minute contact time; for minimal kill concentration (20-minute contact): Staphylococcus aureus, ATCC6538, 20 min, read-out: S. aureus MKC (ppm)
Description: as §1

[3] = system: Staphylococcus aureus ATCC #6538; assay: Minimum Inhibitory Concentration (MIC) Assay with Minimum Biocidal Concentration (MBC); settings: for MIC / MBC: Staphylococcus aureus, ATCC6538, 24 h; for MIC: read-out: S. aureus MIC (ppm); for S. aureus MIC (ppm) / S. aureus MBC (ppm): Table 1.5; for S. aureus MIC (ppm): >=50% inhibition, 24 hrs at 35° C.; for S. aureus MBC (ppm): no visible growth; for MBC: read-out: S. aureus MBC (ppm)
Description: The Minimum Inhibitory Concentration (MIC) Assay is a 96-well high throughput method that determines the minimum concentration of an active required to inhibit the growth of microorganisms. Organism preparation: Compounds were evaluated against the following microorganisms: Staphylococcus aureus ATCC #6538 (American Type Culture Collection, Manassas, Virginia, USA). To prepare bacteria solutions, bacteria were streaked on Tryptic Soy Agar (TSA) and incubated at 30-35° C. for 18-24 hrs. Confluent growth was transferred to saline (0.85% NaCl) and turbidometrically adjusted to a target concentration of 10^7-10^8 CFU/ml. This inoculum solution was further diluted 1:1000 in Tryptic Soy Broth (pH 7) for assay use. Assay: Two-fold serial dilutions were prepared in Dimethylsulfoxide (DMSO, Thermo Scientific Pierce DMSO, Sequencing Grade) or sterile water for each test sample. In a sterile 96-well plate, each dilution was further diluted in broth inoculum such that each well contained 5% dilution and 95% broth inoculum. Bacteria plates were incubated on an orbital shaker (Heidolph Titramax 1000 Vibrating Platform Shaker, 200-300 rpm) for 24±2 hrs at 35° C. After incubation, the optical density (OD) of each well was measured in a spectrophotometer (Victor Nivo Multimode Plate Reader) at 600 nm. […] To determine the Minimum Biocidal Concentration (MBC), 2 ul from each well was pipetted onto neutralizing agar (Modified Letheen Agar with Tween) and incubated for 24 hrs at 30-35° C. The MBC was determined as the most dilute concentration with no visible growth.

[4] = Table 4, derivatized rhamnolipids, solvent DMSO

SMILES	MBC [1, 4]	minimal kill concentration (20-minute contact) [2, 4]	MBC ([3]; Table 5, solvent DMSO)	MIC ([3]; Table 5, solvent DMSO)	further results
CCCCCCCC(O)CC(=O)O (racemic) [(±)-3-Hydroxydecanoic acid, reference compound]	–	–	–	–	MBC ([1]; Table 1.4b, solvent water): 753 µg/mL (≈ 4 mM); minimal kill concentration (20-minute contact) ([2]; Table 1.4b, solvent water): 753 µg/mL; MIC [3]: 1130 µg/mL (≈ 6 mM)
CCCCCC(O)CC(=O)O (racemic) [(±)-3-Hydroxyoctanoic acid, reference compound]	–	–	–	–	MBC ([1]; Table 1.4b, solvent water): > 641 µg/mL; minimal kill concentration (20-minute contact) ([2]; Table 1.4b, solvent water): > 641 µg/mL
CCCCCCCCCC(O)CC(=O)O (racemic) [DL-β-Hydroxylauric acid, reference compound]	–	–	–	–	E. coli MKC (ppm) ([1]; Table 1.4b, solvent water): >865 ppm; S. aureus MKC (ppm) ([2]; Table 1.4b, solvent water): >865 ppm; S. aureus MIC (ppm) ([3]; solvent DMSO): 325 ppm; S. aureus MBC (ppm) ([3]; solvent DMSO): 650 ppm
CCCCCCCCCCCC(O)CC(=O)O (racemic) [DL-β-Hydroxymyristic acid, reference compound]	–	–	–	–	E. coli MKC (ppm) ([1]; Table 1.4b, solvent DMSO): 122 ppm; S. aureus MKC (ppm) ([2]; Table 1.4b, solvent DMSO): 244 ppm; S. aureus MIC (ppm) ([3]; solvent DMSO): 365 ppm; S. aureus MBC (ppm) ([3]; solvent DMSO): 731 ppm
CCCCCCCCCCCCCC(O)CC(=O)O (racemic) [DL-β-Hydroxypalmitic acid, reference compound]	–	–	–	–	E. coli MKC (ppm) ([1]; Table 1.4b, solvent DMSO): 136 ppm; S. aureus MKC (ppm) ([2]; Table 1.4b, solvent DMSO): >1090 ppm; S. aureus MIC (ppm) ([3]; solvent DMSO): 102 ppm; S. aureus MBC (ppm) ([3]; solvent DMSO): 204 ppm
CCCCCCCC(CC(=O)NC)O[C@@H]1O[C@@H](C)[C@H](O)[C@@H](O)[C@H]1O[C@H]1O[C@@H](C)[C@@H](O)[C@H](O)[C@@H]1O (stereo partly drawn) [3-(((2R,3R,4R,5R,6S)-4,5-dihydroxy-6-methyl-3-(((2R,3S,4S,5S,6S)-3,4,5-trihydroxy-6-methyltetrahydro-2H-pyran-2-yl)oxy)tetrahydro-2H-pyran-2-yl)oxy)-N-methyldecanamide]	> 4940 µg/mL	> 4940 µg/mL	> 1970 µg/mL	> 1970 µg/mL	–
CCCCCCCC(CC(=O)NCC(CC)CCCC)O[C@@H]1O[C@@H](C)[C@H](O)[C@@H](O)[C@H]1O[C@@H]1O[C@@H](C)[C@H](O)[C@@H](O)[C@H]1O (stereo partly drawn) [3-(((2R,3R,4R,5R,6S)-4,5-dihydroxy-6-methyl-3-(((2S,3R,4R,5R,6S)-3,4,5-trihydroxy-6-methyltetrahydro-2H-pyran-2-yl)oxy)tetrahydro-2H-pyran-2-yl)oxy)-N-(2-ethylhexyl)decanamide]	> 5920 µg/mL	2960 µg/mL	592 µg/mL (≈ 1 mM)	296 µg/mL (≈ 0.5 mM)	–
CCCCCCCC(CC(=O)NCCO)O[C@@H]1O[C@@H](C)[C@H](O)[C@@H](O)[C@H]1O[C@@H]1O[C@@H](C)[C@H](O)[C@@H](O)[C@H]1O (stereo partly drawn) [3-(((2R,3R,4R,5R,6S)-4,5-dihydroxy-6-methyl-3-(((2S,3R,4R,5R,6S)-3,4,5-trihydroxy-6-methyltetrahydro-2H-pyran-2-yl)oxy)tetrahydro-2H-pyran-2-yl)oxy)-N-(2-hydroxyethyl)decanamide]	> 5240 µg/mL	> 5240 µg/mL	> 2090 µg/mL	> 2090 µg/mL	–
CCCCCCCC(CC(=O)N(C)OC)O[C@@H]1O[C@@H](C)[C@H](O)[C@@H](O)[C@H]1O[C@@H]1O[C@@H](C)[C@H](O)[C@@H](O)[C@H]1O (stereo partly drawn) [3-(((2R,3R,4R,5R,6S)-4,5-dihydroxy-6-methyl-3-(((2S,3R,4R,5R,6S)-3,4,5-trihydroxy-6-methyltetrahydro-2H-pyran-2-yl)oxy)tetrahydro-2H-pyran-2-yl)oxy)-N-methoxy-N-methyldecanamide]	> 5240 µg/mL	> 5240 µg/mL	> 2090 µg/mL	2090 µg/mL (≈ 4 mM)	–
CCCCCCCC(CC(=O)N(C)C)O[C@@H]1O[C@@H](C)[C@H](O)[C@@H](O)[C@H]1O[C@@H]1O[C@H](C)C(O)[C@@H](O)[C@H]1O (stereo partly drawn) [3-(((2R,3R,4R,5R,6S)-4,5-dihydroxy-6-methyl-3-(((2S,3R,4R,6R)-3,4,5-trihydroxy-6-methyltetrahydro-2H-pyran-2-yl)oxy)tetrahydro-2H-pyran-2-yl)oxy)-N,N-dimethyldecanamide]	> 5070 µg/mL	> 5070 µg/mL	> 508 µg/mL	> 508 µg/mL	–
CCCCCCCC(CC(=O)O)O[C@@H]1O[C@@H](C)[C@H](O)[C@@H](O)[C@H]1O[C@@H]1O[C@H](C)C(O)[C@@H](O)[C@H]1O (stereo partly drawn) [3-(((2R,3R,4R,5R,6S)-4,5-dihydroxy-6-methyl-3-(((2S,3R,4R,6R)-3,4,5-trihydroxy-6-methyltetrahydro-2H-pyran-2-yl)oxy)tetrahydro-2H-pyran-2-yl)oxy)decanoic acid]	> 4810 µg/mL	> 4810 µg/mL	> 1920 µg/mL	> 1920 µg/mL	–
CCCCCCCCC[C@@H](O)CC(=O)O [(3R)-3-hydroxydodecanoic acid, reference compound]	–	–	–	–	MBC ([1]; Table 1.4b, solvent water): > 865 µg/mL; minimal kill concentration (20-minute contact) ([2]; Table 1.4b, solvent water): 865 µg/mL
CCCCCCCC(CC(=O)N(CCCC)CCCC)O[C@@H]1O[C@@H](C)[C@H](O)[C@@H](O)[C@H]1O[C@@H]1O[C@@H](C)[C@H](O)[C@@H](O)[C@H]1O (stereo partly drawn) [N,N-dibutyl-3-(((2R,3R,4R,5R,6S)-4,5-dihydroxy-6-methyl-3-(((2S,3R,4R,5R,6S)-3,4,5-trihydroxy-6-methyltetrahydro-2H-pyran-2-yl)oxy)tetrahydro-2H-pyran-2-yl)oxy)decanamide]	5920 µg/mL (≈ 10 mM)	2960 µg/mL	296 µg/mL (≈ 0.5 mM)	296 µg/mL (≈ 0.5 mM)	–
CCCCCCCC(CC(=O)NCCO[Si](C)(C)C(C)(C)C)O[C@@H]1O[C@@H](C)[C@H](O)[C@@H](O)[C@H]1O[C@@H]1O[C@@H](C)[C@H](O)[C@@H](O)[C@H]1O (stereo partly drawn) [N-(2-((tert-butyldimethylsilyl)oxy)ethyl)-3-(((2R,3R,4R,5R,6S)-4,5-dihydroxy-6-methyl-3-(((2S,3R,4R,5R,6S)-3,4,5-trihydroxy-6-methyltetrahydro-2H-pyran-2-yl)oxy)tetrahydro-2H-pyran-2-yl)oxy)decanamide]	> 6370 µg/mL	> 6370 µg/mL	637 µg/mL (≈ 0.999 mM)	319 µg/mL (≈ 0.5 mM)	–
CCCCCCCC(CC(=O)NC1CCCCC1)O[C@@H]1O[C@@H](C)[C@H](O)[C@@H](O)[C@H]1O[C@@H]1O[C@@H](C)[C@H](O)[C@@H](O)[C@H]1O (stereo partly drawn) [N-cyclohexyl-3-(((2R,3R,4R,5R,6S)-4,5-dihydroxy-6-methyl-3-(((2S,3R,4R,5R,6S)-3,4,5-trihydroxy-6-methyltetrahydro-2H-pyran-2-yl)oxy)tetrahydro-2H-pyran-2-yl)oxy)decanamide]	> 5620 µg/mL	> 5620 µg/mL	> 2250 µg/mL	> 2250 µg/mL	–
